Measurements published in patent US6359129B1, “Amino acid-derived, 7-membered cyclic sulfamides and methods of synthesizing the same” (University of Kansas, priority 2000, dated 2002).

Columns and labels:
Format in all cases: biochemical
[1] = target: Herpes Simplex Virus Protease (Human herpesvirus 1, UniProt P10210); assay: Inhibition of Herpes Simplex Virus Protease; conditions: compound tested at 200 μmolar
Description: The inhibition of Herpes Simplex Virus Protease by the compound shown in Scheme R was determined according to the procedure described by Waxman et al., Antiviral Chemistry and Chemotherapy, 11:1-22 (1999); Qiu et al., Proteases of Infectious Agents, Academic Press, 93-115 (1999); and U.S. Pat. No. 6,008,033, each incorporated by reference herein.
The compound was tested at a concentration of 200 μmolar. [drawing 25]

HIV protease = target: T1, HIV protease (Human immunodeficiency virus type 1 group M subtype B, UniProt P04585); assay: Inhibition of HIV protease; conditions: compound at 99 μmolar
T1 construct: a key virally encoded protease enzyme of the pol gene
Description: The inhibition of HIV protease by the compounds shown in Scheme S (99 μmolar), Scheme T (99 μmolar), and Scheme U (99 μmolar) was determined following the procedure described by Maschera et al., Human Immunodeficiency Virus: Mutations in the Viral Protease that Confer Resistance to Saquinavir Increase the Dissociation Rate Constant for the Protease-Saquinavir Complex, J. Biol. Chem., 271:33231-35 (1996), incorporated by reference herein. [drawing 26] [drawing 27] [drawing 28]

human cathepsin K = target: T2, human cathepsin K (Homo sapiens, UniProt P43235); assay: Inhibition of human cathepsin K (fluorogenic peptide assay); conditions: compound at 106 μmolar; pH 5.5, 10 μmolar peptide, 32° C.
T2 sequence (P43235 115-329): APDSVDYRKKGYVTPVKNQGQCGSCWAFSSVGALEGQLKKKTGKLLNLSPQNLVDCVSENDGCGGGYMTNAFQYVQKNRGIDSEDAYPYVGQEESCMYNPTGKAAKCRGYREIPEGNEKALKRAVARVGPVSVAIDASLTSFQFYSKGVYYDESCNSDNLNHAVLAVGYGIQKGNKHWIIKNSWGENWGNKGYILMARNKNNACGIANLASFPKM
Description: The inhibition of human cathepsin K by the compounds shown in Schemes V (106 μmolar) and W (106 μmolar) was determined. [drawing 29] [drawing 30]
The peptides utilized were chromophoric Z-Phe-Arg-pNA*HCl and fluorogenic Z-Phe-Arg-AMC (each available from BACHEM Bioscience, Inc.). Stock solutions were prepared with 100% dimethylsulfoxide (DMSO) and stored at −20° C.
The final assay conditions were 100 mM NaOAc, pH of 5.5, 10 mM (R,R)-dithiothreitol (DTT), 10% DMSO, 120 mM NaCl, 10 μmolar of the peptide, and 12.5-0.012 μmolar inhibitor in twofold serial dilutions from 20× stocks in 100% DMSO. The enzyme working solution was a 1:3000 dilution of […] human cathepsin K into 100 mM of NaOAc, pH of 5.5, 10 mM DTT, 1.2 M NaCl.
Serial dilutions were performed in 100% DMSO. Columns 2-12 of an intermediate plate were filled with […] of 100% DMSO and column 1 was filled with […]. Next, […] of a 10 mM solution was added to column 1. […] The fluorescence was monitored every 6 minutes for 72 minutes using a CytoFluor Series 4000 PerSeptive Biosystems multi-well fluorescence plate reader with the following settings: gain=50; 20 reads/well; 32° C.; lex=360±20 nm; and lem=440±20 nm.

Sequence of Herpes Simplex Virus Protease (P10210 1-247): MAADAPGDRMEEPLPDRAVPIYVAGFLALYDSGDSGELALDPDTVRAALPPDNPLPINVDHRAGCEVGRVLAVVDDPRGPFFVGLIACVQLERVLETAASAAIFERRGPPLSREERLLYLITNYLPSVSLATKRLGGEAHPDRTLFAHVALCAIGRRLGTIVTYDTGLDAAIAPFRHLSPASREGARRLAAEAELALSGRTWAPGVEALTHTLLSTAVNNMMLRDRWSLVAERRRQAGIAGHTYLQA

Structure (SMILES)	inhibition at 99 µM (HIV protease) [%]	inhibition at 106 µM (human cathepsin K) [%]	further results
COC(=O)C(Cc1ccccc1)N1CC(O)C(O)CN(Cc2ccccc2)S1(=O)=O (stereo not drawn) [Scheme R]			inhibition at 200 µM [1]: 20.5%
CC(C)CC(COCc1ccccc1)N1CC=CCN(C(COCc2ccccc2)CC(C)C)S1(=O)=O (stereo not drawn) [Scheme S]	96		
COC(=O)C(Cc1ccccc1)N1CC(O)C(O)CN(C(Cc2ccccc2)C(=O)OC)S1(=O)=O (stereo not drawn) [Scheme T]	22		
COC(=O)C(Cc1ccccc1)N1CC(O)C(O)CN(Cc2ccccc2)S1(=O)=O (stereo not drawn) [Scheme U]	21		
CC(C)CC(COCc1ccccc1)N1CC=CCN(C(COCc2ccccc2)CC(C)C)S1(=O)=O (stereo not drawn) [Scheme V]		20	
CC(C)CC(C(=O)NO)N1CC=CCN(C(CC(C)C)C(=O)NO)S1(=O)=O (stereo not drawn) [Scheme W]		14	
